Measurements from patent US20240174690A1, “ANNULATED 2-AMINO-3-CYANO THIOPHENES AND DERIVATIVES FOR THE TREATMENT OF CANCER” (BOEHRINGER INGELHEIM INTERNATIONAL GMBH, priority 2021, published 2024).

Legend:
[1] = system: NCI-H358 cells; experiment: NCI-H358 CTG proliferation assay (120 h) (NSCLC, G12C); type: cell-based, human; conditions: Homo sapiens, assay 2, CTG, read-out: H358 (assay 2) IC50
Procedure, shortened: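 IC50 values derive from four-parameter nonlinear regression of CellTiter-Glo viability (RLU relative to DMSO wells) after 120 h of exposure. Cells were plated in RPMI-1640 + 10% FCS at 2000 per well (assay 1) or 200 per well (assay 2). Untreated cells were measured at compound addition as T0.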

[2] = system: SAS cells; experiment: SAS CTG proliferation assay (120 h) (HNSCC, wt amplified); type: cell-based
Procedure, shortened: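 Viability measured by CellTiter-Glo luminescence, normalized to DMSO wells, after 120 h compound treatment of SAS cells. Cells grown in DMEM:F12 plus 10% FCS at 300 cells per well, dosed the day after seeding. Four-parameter fit gives IC50.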

[3] = Caco-2 assay (permeability PappAB, PappBA, efflux ratio); type: in vitro ADME; conditions: human, Caco-2, 10 μM test compound, pH 7.4; for Papp A→B at 90 min, 10 μM: apical to basolateral; for efflux ratio at 90 min, 10 μM: efflux ratio PappBA/PappAB, read-out: Caco ER
Procedure, shortened: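 Bidirectional permeability (apical-to-basolateral and reverse) through polarized Caco-2 monolayers, BSA 0.25% on each side, 37 °C. Donor and receiver sampled at 0-90 min after 25-30 min preincubation, analysed by HPLC/MS/MS. Apparent permeabilities derived from transfer rate normalised to area and t=0 donor concentration; ER taken as PappBA over PappAB.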

| SMILES | IC50 [1] | IC50 [2] | Papp A→B at 90 min, 10 μM [3] | efflux ratio at 90 min, 10 μM [3] |
| --- | --- | --- | --- | --- |
| C[C@H](Oc1cc(Cl)nc(-c2onc3c2CCC[C@@]32CCCc3sc(N)c(C#N)c32)n1)[C@@H]1CCCN1C [I-1] | 577 nM | 2880 nM | – | – |
| C[C@H](Oc1nc(-c2onc3c2CCC[C@@]32CCCc3sc(N)c(C#N)c32)cc(N2CCNC3(CC3)C2)n1)[C@@H]1CCCN1C [I-2] | – | – | 1.2 ×10⁻⁶ cm/s | 17.5 |
| C[C@H](Oc1cc(-c2ccn(C)n2)nc(-c2onc3c2CCC[C@@]32CCCc3sc(N)c(C#N)c32)n1)[C@@H]1CCCN1C [I-21] | – | 40 nM | – | – |
| Cc1nc(-c2cc(O[C@@H](C)[C@@H]3CCCN3C)nc(-c3onc4c3CCC[C@@]43CCCc4sc(N)c(C#N)c43)n2)cs1 [I-24] | 163 nM | 77 nM | – | – |
| C[C@H](Oc1cc(-c2ccc(N)nc2)nc(-c2onc3c2CCC[C@@]32CCCc3sc(N)c(C#N)c32)n1)[C@@H]1CCCN1C [I-25] | 188 nM | 285 nM | – | – |
| Cc1ccc(-c2cc(O[C@@H](C)[C@@H]3CCCN3C)nc(-c3onc4c3CCC[C@@]43CCCc4sc(N)c(C#N)c43)n2)cn1 [I-28] | 240 nM | 934 nM | – | – |
| C[C@H](Oc1cc(-n2nccn2)nc(-c2onc3c2CCC[C@@]32CCCc3sc(N)c(C#N)c32)n1)[C@@H]1CCCN1C [I-29] | 2760 nM | 97 nM | – | – |
| C[C@H](Oc1cc(-n2ccnn2)nc(-c2onc3c2CCC[C@@]32CCCc3sc(N)c(C#N)c32)n1)[C@@H]1CCCN1C [I-32] | 303 nM | 52 nM | – | – |
| C[C@H](Oc1cc(-c2ccn3ncnc3c2)nc(-c2onc3c2CCC[C@@]32CCCc3sc(N)c(C#N)c32)n1)[C@@H]1CCCN1C [I-33] | – | 81 nM | – | – |
| C[C@H](Oc1cc(N2CCN(C)C3(CC3)C2)nc(-c2onc3c2CCC[C@@]32CCCc3sc(N)c(C#N)c32)n1)[C@@H]1CCCN1C [I-41] | – | 4190 nM | – | – |
| C[C@H](Oc1cc(N2C[C@H](C)N(C)[C@@H](C)C2)nc(-c2onc3c2CCC[C@@]32CCCc3sc(N)c(C#N)c32)n1)[C@@H]1CCCN1C [I-43] | – | 1800 nM | 2.6 ×10⁻⁶ cm/s | 6.7 |
| C[C@H](Oc1cc(N2CCN(C)C3(CCC3)C2)nc(-c2onc3c2CCC[C@@]32CCCc3sc(N)c(C#N)c32)n1)[C@@H]1CCCN1C [I-44] | 2330 nM | 1200 nM | – | – |
| CO[C@H]1CCN(C)[C@@H]1[C@H](C)Oc1cc(-n2ccc(CC(=O)NC(C)C)n2)nc(-c2onc3c2CCC[C@@]32CCCc3sc(N)c(C#N)c32)n1 [I-48] | 4 nM | 13 nM | – | – |
| CO[C@H]1CCN(C)[C@@H]1[C@H](C)Oc1cc(-n2ccc(C(=O)N[C@@H]3CCOC3)n2)nc(-c2onc3c2CCC[C@@]32CCCc3sc(N)c(C#N)c32)n1 [I-53] | 1 nM | 13 nM | – | – |
| CO[C@H]1CCN(C)[C@@H]1[C@H](C)Oc1cc(-n2ccc(C(=O)N[C@H]3CCOC3)n2)nc(-c2onc3c2CCC[C@@]32CCCc3sc(N)c(C#N)c32)n1 [I-54] | 4 nM | 17 nM | – | – |
| COCCNC(=O)c1ccn(-c2cc(O[C@@H](C)[C@@H]3[C@@H](OC)CCN3C)nc(-c3onc4c3CCC[C@@]43CCCc4sc(N)c(C#N)c43)n2)n1 [I-55] | 5 nM | 10 nM | – | – |
| C[C@H](Oc1cc(-n2ccc(C(=O)N[C@H]3CCOC3)n2)nc(-c2onc3c2CCC[C@@]32CCCc3sc(N)c(C#N)c32)n1)[C@@H]1CCCN1C [I-57] | 6 nM | – | – | – |
| C[C@H](NC(=O)c1ccn(-c2cc(O[C@@H](C)[C@@H]3CCCN3C)nc(-c3onc4c3CCC[C@@]43CCCc4sc(N)c(C#N)c43)n2)n1)c1ccccn1 [I-59] | 2 nM | 15 nM | – | – |
| C[C@H](Oc1cc(-n2ccc(C(=O)N(C)C3COC3)n2)nc(-c2onc3c2CCC[C@@]32CCCc3sc(N)c(C#N)c32)n1)[C@@H]1CCCN1C [I-60] | 4 nM | 40 nM | – | – |
| C[C@H](Oc1cc(N2CC(N(C)C)C2)nc(-c2noc3c2CCC[C@@]32CCCc3sc(N)c(C#N)c32)n1)[C@@H]1CCCN1C [II-7] | – | 1190 nM | 1.3 ×10⁻⁶ cm/s | 21.5 |
| C[C@H](Oc1cc(N2CCN(CCO)CC2)nc(-c2noc3c2CCC[C@@]32CCCc3sc(N)c(C#N)c32)n1)[C@@H]1CCCN1C [II-8] | – | 534 nM | 1.1 ×10⁻⁶ cm/s | 12.7 |
| C[C@H](Oc1cc(N2C[C@@H](N(C)C)[C@@H](F)C2)nc(-c2noc3c2CCC[C@@]32CCCc3sc(N)c(C#N)c32)n1)[C@@H]1CCCN1C [II-11] | – | 1320 nM | – | – |
